Data published in article PMC7762828 (Journal of medicinal chemistry, 2020).

Columns and labels:
HL60 cells [1] = assay: Annexin V-propidium iodide apoptosis assay; assay type: cell-based; conditions: HL60, 24 h
HL60 cells [2] = assay: Western blot of protein acetylation in HL60 cells; assay type: cell-based; conditions: HL60, 24 h, two concentrations, immunoblot
Human recombinant HDAC4 = Human recombinant HDAC4 (Homo sapiens, UniProt P56524); assay: HDAC4 inhibition assay; assay type: biochemical; conditions: selectivity for HDAC6 over HDAC4
Human recombinant HDAC4, sequence (P56524 whole entry): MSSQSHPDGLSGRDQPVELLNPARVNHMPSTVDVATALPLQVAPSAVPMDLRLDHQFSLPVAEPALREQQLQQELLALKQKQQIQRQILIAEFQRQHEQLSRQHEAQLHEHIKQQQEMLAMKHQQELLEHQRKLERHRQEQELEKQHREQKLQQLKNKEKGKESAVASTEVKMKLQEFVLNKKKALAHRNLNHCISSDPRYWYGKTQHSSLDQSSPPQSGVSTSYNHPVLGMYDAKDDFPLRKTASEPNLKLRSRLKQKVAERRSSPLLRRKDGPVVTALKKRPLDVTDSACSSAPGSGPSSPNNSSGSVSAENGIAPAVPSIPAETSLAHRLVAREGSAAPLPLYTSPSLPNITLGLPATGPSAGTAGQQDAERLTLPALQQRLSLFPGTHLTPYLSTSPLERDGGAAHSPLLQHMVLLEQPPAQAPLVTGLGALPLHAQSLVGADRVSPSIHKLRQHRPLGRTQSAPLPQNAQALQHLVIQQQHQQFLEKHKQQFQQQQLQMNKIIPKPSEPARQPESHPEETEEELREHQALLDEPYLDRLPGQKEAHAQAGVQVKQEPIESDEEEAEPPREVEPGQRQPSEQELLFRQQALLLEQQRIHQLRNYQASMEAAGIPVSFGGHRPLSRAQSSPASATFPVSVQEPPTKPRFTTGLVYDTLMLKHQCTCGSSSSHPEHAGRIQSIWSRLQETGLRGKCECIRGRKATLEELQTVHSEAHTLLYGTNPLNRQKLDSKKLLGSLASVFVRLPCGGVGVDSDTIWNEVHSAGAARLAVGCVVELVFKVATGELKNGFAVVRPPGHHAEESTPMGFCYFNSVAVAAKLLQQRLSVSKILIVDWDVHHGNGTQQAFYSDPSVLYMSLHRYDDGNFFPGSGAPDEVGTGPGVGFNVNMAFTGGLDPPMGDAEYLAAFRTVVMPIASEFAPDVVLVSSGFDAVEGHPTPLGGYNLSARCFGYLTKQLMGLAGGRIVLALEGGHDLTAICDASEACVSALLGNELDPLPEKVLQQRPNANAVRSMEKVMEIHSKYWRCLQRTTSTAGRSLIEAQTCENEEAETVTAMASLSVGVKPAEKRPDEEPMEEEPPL

T-ALL cell line (HSB-2) = assay: Combinatorial high throughput drug screen; assay type: cell-based
leukemia cell lines = assay: CellTiter-Glo cell viability assay, panel of seven leukemia cell lines; assay type: cell-based; conditions: 72 h, read-out: cell viability IC50

SI (HDAC4 vs HDAC6) (Human recombinant HDAC4): 1857
IC50 (leukemia cell lines): > 20 µM
Structure (SMILES): O=C(NO)c1ccc(CN(Cc2nnnn2Cc2ccccc2)C(=O)c2ccccc2C(F)(F)F)cc1 [6l]
cytotoxic effect as single agent (number of viable cells) (HL60 cells [1]; 6l alone at 2.5 or 5 μM): no cytotoxic effect
apoptosis induction in combination with BTZ (late apoptotic/dead cells) (HL60 cells [1]; combination with bortezomib (BTZ) versus BTZ alone): augmented the apoptosis induction of BTZ
acetylation status of histone H3 (ac-H3), marker for class I HDAC inhibition (HL60 cells [2]): unaffected
α-tubulin acetylation (ac-α-tubulin), marker for HDAC6 inhibition (HL60 cells [2]): induced α-tubulin acetylation
cytotoxic activity in combination with anthracyclines (T-ALL cell line (HSB-2); HSB-2, 6l […] and 5 μM with epirubicin (Epi) and daunorubicin (Dauno)): significant enhancement of cytotoxic activity
cytotoxicity as single agent (T-ALL cell line (HSB-2); HSB-2, 6l alone): unable to affect the cytotoxicity
